Experimental data: patent US20230233565A1, “A TREATMENT APPROACH INVOLVING KIF18A INHIBITION FOR CHROMOSOMALLY UNSTABLE TUMORS” (UNIVERSITY OF VERMONT, priority 2020, published 2023)

Tests used:
Assay type in all cases: cell-based
MDA-MB-231 cells [1] = assay: Mitotic spindle morphology analysis (multipolar spindles, centrioles, fixed cells)
Method: (§1) For experiments involving siRNA knockdown followed by drug treatment, the indicated concentrations of paclitaxel (Selleck Chemicals, Houston, Tex.), nocodazole (Selleck Chemicals, Houston, Tex.), and/or monastrol (Selleck Chemicals, Houston, Tex.) were added to cells 24 h after siRNA treatment. Three hours after drug addition, cells were either fixed and stained for immunofluorescence imaging or imaged live in a glass-bottom 24-well dish. To compare the effects of paclitaxel treatment to the effects of KIF18A KD in MDA-MB-231 and MCF10A cell lines, 10 nM of paclitaxel was added to cells 24 h before fixing and staining for immunofluorescence imaging.
Cells were grown on glass coverslips and fixed using either −20° C. methanol or 1% paraformaldehyde in −20° C. methanol. Cells were blocked with 20% goat serum in antibody diluting buffer (Abdil—TBS, 1% BSA, 0.1% Triton X-100, and 0.1% sodium azide) and incubated with the following primary antibodies: mouse anti-α-tubulin (DM1α) 1:500 (Millipore Sigma, Burlington Mass.) for one hour at room temperature (RT), human anti-centromere antibody (ACA) 1:250 (Antibodies Incorporated) overnight at 4° C., rabbit anti-γ-tubulin 1:500 (Abcam, Cambridge, Mass.) for one hour at RT, mouse anti-γ-tubulin 1:500 for one hour at RT (Abcam, Cambridge, Mass.), rabbit anti-KIF18A 1:100 (Bethyl Laboratories, Montgomery, Tex.) at 4° C. overnight, mouse anti-centrin-1 1:500 (Santa Cruz Biotechnology) for one hour at RT, and rabbit KIF18B 1:2000 (Shin et al., “Biased Brownian Motion as a Mechanism to Facilitate Nanometer-scale Exploration of the Microtubule Plus End by a Kinesin-8,” Proc National Acad Sci 112:E3826-35 (2015), which is hereby incorporated by reference in its entirety) for one hour at RT. Secondary antibodies conjugated to Alexa Fluor 488, 594, and 647 (Molecular Probes, Eugene, Oreg.) were used at concentrations of 1:15000 for one hour at RT. Coverslips were mounted onto glass slides using Prolong Gold anti-fade mounting medium with DAPI (Molecular Probes, Eugene, Oreg.).
(§2) To analyze mitotic spindle morphology, cells were fixed and stained for γ-tubulin, α-tubulin, and centrin-1. Enough optical slices spaced 200 nm apart were captured to visualize the entire 3-D structure of the spindle. Spindles with three or more visible microtubule-organizing centers were classified as multipolar. Cells were considered to have fragmented pericentriolar material (PCM) if they had supernumerary poles observed via γ-tubulin staining but lacked centrioles (centrin-1 puncta) at one or more of the poles. Intercentriolar distance, or the distance in microns between two centrioles in a pair, was measured from the center of one centriole to the center of the adjacent centriole.

MDA-MB-231 cells [2] = assay: Kinetic cell proliferation assay, siRNA plus UMK57 or DMSO
Method: HT29, LoVo, SW480, LS1034, HCC1806, HCT116, MCF10A, MDA-MB-231, and MDA-MB-468 cells were purchased from ATCC (Manassas, Va.). All cell lines were validated by STR DNA fingerprinting using the Promega GenePrint® 10 System according to manufacturer's instructions (Promega #B9510). HT29, LoVo, SW480, MDA-MB-231, and MDA-MB-468 cells were cultured in DMEM/F-12 medium (Gibco) supplemented with 10% FBS (Gibco) and 1% penicillin/streptomycin (pen/strep). LS1034 and HCC1806 cells were cultured in RPMI 1640 medium (Gibco) with 10% FBS and 1% pen/strep. […]
Cells were imaged in either a 96- or 24-well dish every two or four hours for up to five days using the Cytation 5 Cell Imaging Multi-Mode Reader (Biotek, Winooski, Vt.) driven by Gen5 software (Biotek, Winooski, Vt.). […] Between imaging reads, cells were incubated at 37° C. with 5% CO2 using the Biospa 8 Automated Incubator (Biotek, Winooski, Vt.). […] To determine rates of cell proliferation, the fold change in cells/mm^2 between the first and last reads of each well were calculated and normalized to the control for each experiment. […] For cytotoxicity assays, CellTox™ Green Dye (Promega, Madison, Wis.) was added to cell media prior to imaging, and the number of cells/mm^2 was recorded for both GFP and brightfield channels. […]

MDA-MB-231 cells [3] = assay: Live imaging with siR-tubulin (spindle pole splitting); conditions: UMK57 in KIF18A KD cells
Method: Cells were plated in a glass-bottom 24-well dish and treated with the indicated siRNA approximately 24 hours before imaging. Six hours before imaging, the cell culture media was replaced with CO2-independent media containing […] SiR-tubulin (Cytoskeleton). For conditions involving UMK57 or DMSO, the specified drug was added to the CO2-independent media with siR-tubulin. Cells were imaged every 2 minutes for 16-20 hours using a 40×0.75 NA objective (Nikon).

MDA-MB-231 cells [4] = assay: Mitotic index from fixed-cell images; conditions: 500 nM UMK57 in KIF18A-depleted cells, versus DMSO
Method: as §1
(§3) To measure the length of mitosis, live cells were imaged every two minutes for 16-20 hours using differential interference contrast (DIC) microscopy. The time between nuclear envelope breakdown (NEB) and anaphase onset (AO) was used to indicate the time a cell spent in mitosis. Mitotic index was measured using fixed-cell images by counting the number of mitotic cells divided by the total number of cells. All mitotic index fields were taken with a 40×objective. An unpaired t-test was used to determine statistical significance between control and KIF18A KD conditions for each cell line.

diploid MCF10A cells [5] = assay: Mitotic index from fixed-cell images; conditions: 10 nM paclitaxel, 24 h
Method: as §1, §3

diploid MCF10A cells [6] = assay: Mitotic spindle morphology analysis (multipolar spindles, fixed cells); conditions: 10 nM paclitaxel, 24 h
Method: as §1, §2

COC(=O)Nc1nc2ccc(C(=O)c3cccs3)cc2[nH]1 [nocodazole]
multipolar spindles in KIF18A KD cells (MDA-MB-231 cells [1]; 5 μM nocodazole for 3 h, versus DMSO): significantly fewer multipolar spindles

Cc1ccc(-c2csc3ncnc(N4CCCC4)c23)cc1 [UMK57]
proliferation (MDA-MB-231 cells [2]; 500 nM UMK57 in KIF18A-depleted cells, versus DMSO): decreased proliferation
proliferation (MDA-MB-231 cells [2]; 500 nM UMK57 in control siRNA-treated cells): no impact on the proliferation
spindle pole splitting (MDA-MB-231 cells [3]): increased spindle pole splitting
mitotic index (MDA-MB-231 cells [4]): increased
percentage of multipolar spindles (MDA-MB-231 cells [1]; 500 nM UMK57 in KIF18A KD cells, versus DMSO): small but significant increase in multipolar spindles
chromosome alignment defects in bipolar spindles (MDA-MB-231 cells [1]; UMK57 in KIF18A KD cells): without an obvious change in chromosome alignment defects

CC(=O)O[C@H]1C(=O)[C@@]2(C)[C@H]([C@H](OC(=O)c3ccccc3)[C@]3(O)C[C@H](OC(=O)[C@H](O)[C@@H](NC(=O)c4ccccc4)c4ccccc4)C(C)=C1C3(C)C)[C@]1(OC(C)=O)CO[C@@H]1C[C@@H]2O [paclitaxel]
mitotic index (diploid MCF10A cells [5]): increased the mitotic index
multipolar spindles (diploid MCF10A cells [6]): increased
multipolar spindles in KIF18A KD cells (MDA-MB-231 cells [1]; 20 nM paclitaxel for 3 h, versus DMSO): significantly fewer multipolar spindles
mitotic defects (mitotic index, multipolar spindles) (MDA-MB-231 cells [1]; MDA-MB-231, KIF18A KD versus 10 nM paclitaxel (24 h)): produced similar mitotic defects
